The values that follow come from the NIST ThermoML archive (doi:10.1021/je060068f).

For this data set the following is noted: Liquid; pulse-heating method.

Numbers after ± are expanded uncertainties.

For the compound `CCCOC(=O)c1ccccc1C(=O)OCCC` [1,2-benzenedicarboxylic acid dipropyl ester], the Critical pressure stood at 1900 ± 70 kPa and the Critical temperature came out at 784 ± 9 K.

`CCCCOC(=O)c1ccccc1C(=O)OCCCC` [dibutyl phthalate]: the Critical pressure came to 1660 ± 60 kPa and the Critical temperature is 797 ± 9 K.

On to `CCCCCCCOC(=O)c1ccccc1C(=O)OCCCCCCC` [diheptyl phthalate], for which the Critical pressure is 1240 ± 40 kPa and the Critical temperature came to 830 ± 9 K.

Turning to `CCCCCCOC(=O)c1ccccc1C(=O)OCCCCCC` [dihexyl phthalate], the Critical pressure stood at 1340 ± 50 kPa and the Critical temperature is on record as 817 ± 9 K.

As for `CCCCC(CC)COC(=O)c1ccccc1C(=O)OCC(CC)CCCC` (centres undefined) [bis(2-ethylhexyl) 1,2-benzenedicarboxylate], the Critical pressure turned out to be 1070 ± 40 kPa and the Critical temperature is on record as 835 ± 9 K.

As to `CCCCCCCCCCOC(=O)c1ccccc1C(=O)OCCCCCCCCCC` [didecyl phthalate], the Critical pressure stood at 940 ± 30 kPa and the Critical temperature came to 870 ± 10 K.

Turning to `CCCCCCCCCOC(=O)c1ccccc1C(=O)OCCCCCCCCC` [dinonyl phthalate], the Critical pressure was 1020 ± 40 kPa and the Critical temperature stood at 858 ± 9 K.

On to `CCOC(=O)c1ccccc1C(=O)OCC` [diethyl phthalate], for which the Critical pressure was 2260 ± 80 kPa and the Critical temperature is reported as 776 ± 9 K.

Regarding `CCCCCOC(=O)c1ccccc1C(=O)OCCCCC`, the Critical pressure was found to be 1430 ± 50 kPa and the Critical temperature is recorded as 811 ± 9 K.

Regarding `CCCCCCCCOC(=O)c1ccccc1C(=O)OCCCCCCCC` [dioctyl 1,2-benzenedicarboxylate], the Critical pressure is reported as 1080 ± 40 kPa and the Critical temperature was found to be 840 ± 9 K.

For `COC(=O)c1ccccc1C(=O)OC` [dimethyl 1,2-benzenedicarboxylate], the Critical pressure amounted to 2770 ± 100 kPa and the Critical temperature is given as 772 ± 9 K.

Turning to `CCCCCCCCCCCOC(=O)c1ccccc1C(=O)OCCCCCCCCCCC` [diundecyl phthalate], the Critical pressure is reported as 890 ± 30 kPa and the Critical temperature was determined as 886 ± 10 K.
